According to patent US20120058989A1, “ANTIBACTERIAL FLUOROQUINOLONE ANALOGS” (Achaogen, Inc., priority 2008, published 2012):

How the values were obtained:
Assay in all cases: MIC, CLSI broth microdilution
Assay type in all cases: cell-based
[1] = tested on: E. coli AECO002 (Fluoroquinolone susceptible); details: Table 3
Summary of the method: (§1)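 CLSI M7-A7 broth microdilution in Mueller Hinton Broth using two-fold compound serial dilutions. Inoculum was prepared from the previous day's agar colonies at a final 5×10^5 CFU/mL. Plates were incubated at 35° C for 20 hours in ambient air.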

[2] = tested on: P. aeruginosa APAE054 (Fluoroquinolone-resistant)
Summary of the method: as §1

[3] = tested on: E. coli AECO086 (Fluoroquinolone-resistant); details: Table 3
Summary of the method: as §1

[4] = tested on: P. aeruginosa APAE001 (Fluoroquinolone-susceptible, ATCC27853)
Summary of the method: as §1

[5] = tested on: S. aureus ASAU1033 (Fluoroquinolone-resistant); details: Table 3
Summary of the method: as §1

[6] = tested on: S. aureus ASAU1031 (Fluoroquinolone-resistant)
Summary of the method: as §1

[7] = tested on: E. coli AECO066 (Fluoroquinolone-resistant)
Summary of the method: as §1

[8] = tested on: P. aeruginosa APAE002 (Fluoroquinolone susceptible); details: Table 3
Summary of the method: as §1

[9] = tested on: S. pneumoniae ASPN1018 (Fluoroquinolone-resistant); details: Table 3
Summary of the method: as §1

[10] = tested on: S. pneumoniae ASPN1027 (Fluoroquinolone-resistant)
Summary of the method: as §1

[11] = tested on: S. pneumoniae ASPN002 (Fluoroquinolone-susceptible, ATCC10813); details: Table 3
Summary of the method: as §1

[12] = tested on: A. baumannii AABA1065 (Fluoroquinolone-susceptible)
Summary of the method: as §1

[13] = tested on: S. aureus ASAU001 (Fluoroquinolone-susceptible, ATCC29213)
Summary of the method: as §1

[14] = tested on: A. baumannii AABA1020 (Fluoroquinolone-resistant); details: Table 3
Summary of the method: as §1

[15] = tested on: S. aureus ASAU002 (Fluoroquinolone-susceptible, ATCC33591 (MRSA)); details: Table 3
Summary of the method: as §1

[16] = tested on: S. pneumoniae ASPN001 (Fluoroquinolone-susceptible, ATCC49619)
Summary of the method: as §1

[17] = tested on: A. baumannii AABA1009 (Fluoroquinolone-resistant); details: Table 2
Summary of the method: as §1

[18] = tested on: E. coli AECO001 (Fluoroquinolone susceptible, ATCC25922)
Summary of the method: as §1

Row | MIC AECO002 [1] | MIC APAE 054 ([2]; Table 2) | MIC APAE 054 ([2]; Table 3) | MIC AECO086 [3] | MIC APAE 001 ([4]; Table 2) | MIC APAE 001 ([4]; Table 3) | MIC ASAU1033 [5] | MIC ASAU 1031 ([6]; Table 3) | MIC AECO 066 ([7]; Table 3) | MIC APAE002 [8] | MIC ASPN1018 [9] | MIC ASPN 1027 ([10]; Table 3) | MIC ASPN002 [11] | MIC AABA 1065 ([12]; Table 2) | MIC AABA 1065 ([12]; Table 3) | MIC ASAU 001 ([13]; Table 2) | MIC ASAU 001 ([13]; Table 3) | Structure (SMILES) | MIC ASAU 1031 ([6]; Table 2) | MIC AECO 066 ([7]; Table 2) | MIC ASPN 1027 ([10]; Table 2) | also measured
1 | A (MIC's of less than 1.0 = A) | C (MIC's of greater than 8.0 μg/mL = C) | D (MIC's of greater than 8.0 μg/mL = D) | B (MIC's of 1.0 μg/mL to 2.0 μg/mL = B) | A (MIC's of 1.0 μg/mL or less = A) | A (MIC's of less than 1.0 = A) | B (MIC's of 1.0 μg/mL to 2.0 μg/mL = B) | A (MIC's of less than 1.0 = A) | C (MIC's of 2.0 μg/mL to 8.0 μg/mL = C) | A (MIC's of less than 1.0 = A) | A (MIC's of less than 1.0 = A) | A (MIC's of less than 1.0 = A) | A (MIC's of less than 1.0 = A) | A (MIC's of 1.0 μg/mL or less = A) | A (MIC's of less than 1.0 = A) | A (MIC's of 1.0 μg/mL or less = A) | A (MIC's of less than 1.0 = A) | N[C@@H]1CCN2c3c(F)cc4c(=O)c(C(=O)O)cn(C5CC5)c4c3C=CC[C@H]12.O=C(O)C(F)(F)F [16/16, (7aR,8R)-8-Amino-4-cyclopropyl-12-fluoro-1-oxo-4,7,7a,8,9,10-hexahydro-1H-pyrrolo[1′,2′:1,7]azepino[2,3-h]quinoline-2-carboxylic acid trifluoroacetate] | A (MIC's of 1.0 μg/mL or less = A) | B (MIC's of greater than 1.0 μg/mL to 8.0 μg/mL = B) | B (MIC's of greater than 1.0 μg/mL to 8.0 μg/mL = B) | MIC AABA1020 [14]: C (MIC's of 2.0 μg/mL to 8.0 μg/mL = C); MIC ASAU002 [15]: A (MIC's of less than 1.0 = A); MIC ASPN 001 ([16]; Table 2): A (MIC's of 1.0 μg/mL or less = A); MIC ASPN 001 ([16]; Table 3): A (MIC's of less than 1.0 = A); MIC AABA 1009 [17]: B (MIC's of greater than 1.0 μg/mL to 8.0 μg/mL = B); MIC AECO 001 ([18]; Table 2, 35° C., 20 hours): A (MIC's of 1.0 μg/mL or less = A); MIC AECO 001 ([18]; Table 3): A (MIC's of less than 1.0 = A)
2 | A (MIC's of less than 1.0 = A) | C (MIC's of greater than 8.0 μg/mL = C) | D (MIC's of greater than 8.0 μg/mL = D) | C (MIC's of 2.0 μg/mL to 8.0 μg/mL = C) | A (MIC's of 1.0 μg/mL or less = A) | A (MIC's of less than 1.0 = A) | C (MIC's of 2.0 μg/mL to 8.0 μg/mL = C) | A (MIC's of less than 1.0 = A) | C (MIC's of 2.0 μg/mL to 8.0 μg/mL = C) | A (MIC's of less than 1.0 = A) | B (MIC's of 1.0 μg/mL to 2.0 μg/mL = B) | A (MIC's of less than 1.0 = A) | A (MIC's of less than 1.0 = A) | A (MIC's of 1.0 μg/mL or less = A) | A (MIC's of less than 1.0 = A) | A (MIC's of 1.0 μg/mL or less = A) | A (MIC's of less than 1.0 = A) | NC1CCN2c3c(F)cc4c(=O)c(C(=O)O)cn(C5CC5)c4c3CCCC12.O=C(O)C(F)(F)F [16/18, (7aR,8R)-8-Amino-4-cyclopropyl-12-fluoro-1-oxo-4,5,6,7,7a,8,9,10-octahydro-1H-pyrrolo[1′,2′:1,7]azepino[2,3-h]quinoline-2-carboxylic acid trifluoroacetate] | B (MIC's of greater than 1.0 μg/mL to 8.0 μg/mL = B) | B (MIC's of greater than 1.0 μg/mL to 8.0 μg/mL = B) | B (MIC's of greater than 1.0 μg/mL to 8.0 μg/mL = B) | MIC AABA1020 [14]: D (MIC's of greater than 8.0 μg/mL = D); MIC ASAU002 [15]: A (MIC's of less than 1.0 = A); MIC ASPN 001 ([16]; Table 2): A (MIC's of 1.0 μg/mL or less = A); MIC ASPN 001 ([16]; Table 3): A (MIC's of less than 1.0 = A); MIC AABA 1009 [17]: B (MIC's of greater than 1.0 μg/mL to 8.0 μg/mL = B); MIC AECO 001 ([18]; Table 2, 35° C., 20 hours): A (MIC's of 1.0 μg/mL or less = A); MIC AECO 001 ([18]; Table 3): A (MIC's of less than 1.0 = A)
3 | A (MIC's of less than 1.0 = A) | C (MIC's of greater than 8.0 μg/mL = C) | D (MIC's of greater than 8.0 μg/mL = D) | B (MIC's of 1.0 μg/mL to 2.0 μg/mL = B) | A (MIC's of 1.0 μg/mL or less = A) | A (MIC's of less than 1.0 = A) | C (MIC's of 2.0 μg/mL to 8.0 μg/mL = C) | A (MIC's of less than 1.0 = A) | C (MIC's of 2.0 μg/mL to 8.0 μg/mL = C) | A (MIC's of less than 1.0 = A) | B (MIC's of 1.0 μg/mL to 2.0 μg/mL = B) | A (MIC's of less than 1.0 = A) | A (MIC's of less than 1.0 = A) | A (MIC's of 1.0 μg/mL or less = A) | A (MIC's of less than 1.0 = A) | A (MIC's of 1.0 μg/mL or less = A) | A (MIC's of less than 1.0 = A) | N[C@H]1CCN2c3c(F)cc4c(=O)c(C(=O)O)cn(C5CC5)c4c3C=CC[C@H]12.O=C(O)C(F)(F)F [17/8, (7aR,8S)-8-Amino-4-cyclopropyl-12-fluoro-1-oxo-4,7,7a,8,9,10-hexahydro-1H-pyrrolo[1′,2′:1,7]azepino[2,3-h]quinoline-2-carboxylic acid trifluoroacetate] | B (MIC's of greater than 1.0 μg/mL to 8.0 μg/mL = B) | B (MIC's of greater than 1.0 μg/mL to 8.0 μg/mL = B) | B (MIC's of greater than 1.0 μg/mL to 8.0 μg/mL = B) | MIC AABA1020 [14]: D (MIC's of greater than 8.0 μg/mL = D); MIC ASAU002 [15]: A (MIC's of less than 1.0 = A); MIC ASPN 001 ([16]; Table 2): A (MIC's of 1.0 μg/mL or less = A); MIC ASPN 001 ([16]; Table 3): A (MIC's of less than 1.0 = A); MIC AABA 1009 [17]: C (MIC's of greater than 8.0 μg/mL = C); MIC AECO 001 ([18]; Table 2, 35° C., 20 hours): A (MIC's of 1.0 μg/mL or less = A); MIC AECO 001 ([18]; Table 3): A (MIC's of less than 1.0 = A)

Row | Structure (SMILES) | MIC AECO002 [1] | MIC APAE 054 ([2]; Table 2) | MIC APAE 054 ([2]; Table 3) | MIC AECO086 [3] | MIC APAE 001 ([4]; Table 2) | MIC APAE 001 ([4]; Table 3) | MIC ASAU1033 [5] | MIC ASAU 1031 ([6]; Table 3) | MIC AECO 066 ([7]; Table 3) | MIC APAE002 [8] | MIC ASPN1018 [9] | MIC ASPN 1027 ([10]; Table 3) | MIC ASPN002 [11] | MIC AABA 1065 ([12]; Table 2) | MIC AABA 1065 ([12]; Table 3) | MIC ASAU 001 ([13]; Table 2) | MIC ASAU 001 ([13]; Table 3) | MIC ASAU 1031 ([6]; Table 2) | MIC AECO 066 ([7]; Table 2) | MIC ASPN 1027 ([10]; Table 2) | also measured
4 | N[C@H]1CCN2c3c(F)cc4c(=O)c(C(=O)O)cn(C5CC5)c4c3CCC[C@H]12.O=C(O)C(F)(F)F [17/10, (7aR,8S)-8-Amino-4-cyclopropyl-12-fluoro-1-oxo-4,5,6,7,7a,8,9,10-octahydro-1H-pyrrolo[1′,2′:1,7]azepino-[2,3-h]quinoline-2-carboxylic acid trifluoroacetate] | A (MIC's of less than 1.0 = A) | C (MIC's of greater than 8.0 μg/mL = C) | D (MIC's of greater than 8.0 μg/mL = D) | D (MIC's of greater than 8.0 μg/mL = D) | B (MIC's of greater than 1.0 μg/mL to 8.0 μg/mL = B) | B (MIC's of 1.0 μg/mL to 2.0 μg/mL = B) | D (MIC's of greater than 8.0 μg/mL = D) | B (MIC's of 1.0 μg/mL to 2.0 μg/mL = B) | D (MIC's of greater than 8.0 μg/mL = D) | A (MIC's of less than 1.0 = A) | C (MIC's of 2.0 μg/mL to 8.0 μg/mL = C) | B (MIC's of 1.0 μg/mL to 2.0 μg/mL = B) | A (MIC's of less than 1.0 = A) | A (MIC's of 1.0 μg/mL or less = A) | A (MIC's of less than 1.0 = A) | A (MIC's of 1.0 μg/mL or less = A) | A (MIC's of less than 1.0 = A) | B (MIC's of greater than 1.0 μg/mL to 8.0 μg/mL = B) | C (MIC's of greater than 8.0 μg/mL = C) | B (MIC's of greater than 1.0 μg/mL to 8.0 μg/mL = B) | MIC AABA1020 [14]: D (MIC's of greater than 8.0 μg/mL = D); MIC ASAU002 [15]: A (MIC's of less than 1.0 = A); MIC ASPN 001 ([16]; Table 2): A (MIC's of 1.0 μg/mL or less = A); MIC ASPN 001 ([16]; Table 3): A (MIC's of less than 1.0 = A); MIC AABA 1009 [17]: C (MIC's of greater than 8.0 μg/mL = C); MIC AECO 001 ([18]; Table 2, 35° C., 20 hours): A (MIC's of 1.0 μg/mL or less = A); MIC AECO 001 ([18]; Table 3): A (MIC's of less than 1.0 = A)
